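48-hour exposure; five concentrations; linearly interpolated endpoints. GI50 is the concentration that inhibits growth by half. The concentration for full growth arrest is given as TGI.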
Legend:
Test in all cases: NCI anticancer screen, dose series, 48 h
[1] = tested on: K-562 leukemia
[2] = tested on: MDA-MB-435
[3] = tested on: HT29 colon
[4] = tested on: NCI-H522 lung
[5] = tested on: CAKI-1 renal
[6] = tested on: HCT-116 colon
[7] = tested on: TK-10 renal
[8] = tested on: SF-539 CNS
[9] = tested on: MCF7 breast
[10] = tested on: EKVX NSCLC

Compound `CC(C)OCc1cc(CN2CCN(c3cccc(Cl)c3)CC2)c(O)c2ncccc12` has a GI50 [1] of 0.349 µM, a TGI [1] of 10.3 µM and a GI50 [2] of 0.923 µM. For the same compound, the TGI [2] was 11.4 µM, the GI50 [3] was 6.76 µM and the TGI [3] was 21.8 µM. The GI50 [4] was 0.3 µM, the TGI [4] was 2.26 µM and the GI50 [5] was 0.223 µM. It also gave a TGI [5] of 11 µM, a GI50 [6] of 0.425 µM and a TGI [6] of 3.79 µM. The GI50 [7] was 0.837 µM, the TGI [7] was 21 µM and the GI50 [8] was 0.471 µM. It also gave a TGI [8] of 3.48 µM, a GI50 [9] of 0.377 µM and a TGI [9] of 11.5 µM.
With `Cn1c2cc([N+](=O)[O-])ccc2c(=O)c2c(O)cc3c(c21)C=CC(C)(C)O3` the TGI [1] was greater than 100 µM, the TGI [3] was greater than 100 µM and the TGI [4] was greater than 100 µM. For the same compound, the TGI [5] was greater than 100 µM, the TGI [7] was 89.1 µM and the TGI [8] was 32.4 µM. The TGI [10] was greater than 100 µM.
Work on `O=c1[nH]c(F)nc2c1ncn2C1OC(CO)C(O)C1O` (centres undefined) yielded a GI50 [1] greater than 100 µM, a TGI [1] greater than 100 µM and a GI50 [2] greater than 100 µM. It also gave a TGI [2] greater than 100 µM, a GI50 [6] greater than 100 µM and a TGI [6] greater than 100 µM. It also gave a GI50 [8] of 23.9 µM, a TGI [8] of 80.3 µM and a GI50 [9] greater than 100 µM. For the same compound, the TGI [9] was greater than 100 µM.
`O=C([O-])CCc1ccccc1.O=C([O-])CCc1ccccc1.O=C([O-])CCc1ccccc1.O=C([O-])CCc1ccccc1.[Mo+2].[Mo+2]` gave a GI50 [1] greater than 100 µM, a TGI [1] greater than 100 µM and a GI50 [3] greater than 100 µM. It also gave a TGI [3] greater than 100 µM, a GI50 [5] greater than 100 µM and a TGI [5] greater than 100 µM. The GI50 [6] was greater than 100 µM, the TGI [6] was greater than 100 µM and the GI50 [7] was greater than 100 µM. It also gave a TGI [7] greater than 100 µM, a GI50 [8] greater than 100 µM and a TGI [8] greater than 100 µM. For the same compound, the GI50 [10] was greater than 100 µM and the TGI [10] was greater than 100 µM.
`CCC1c2cc3n(c(=O)c2COC1O)Cc1c-3nc2ccccc2c1Cl` (centres undefined) gave a TGI [1] greater than 100 µM, a TGI [3] greater than 100 µM and a TGI [4] greater than 100 µM. For the same compound, the TGI [5] was greater than 100 µM, the TGI [6] was greater than 100 µM and the TGI [7] was greater than 100 µM. For the same compound, the TGI [8] was greater than 100 µM and the TGI [10] was greater than 100 µM.
`C=C(COC(C)=O)CC(/C=C(\C)CC/C=C(\C)CO)OC(C)=O` (centres undefined) was tested, and the TGI [1] was greater than 100 µM, the TGI [3] was greater than 100 µM and the TGI [4] was greater than 100 µM. It also gave a TGI [6] greater than 100 µM, a TGI [7] greater than 100 µM and a TGI [8] greater than 100 µM. The TGI [10] was greater than 100 µM.
`N#Cc1c(-c2ccccc2)cc(-c2cccs2)c(C#N)c1N` showed a TGI [1] greater than 100 µM, a TGI [3] greater than 100 µM and a TGI [4] greater than 100 µM. For the same compound, the TGI [5] was greater than 100 µM, the TGI [6] was greater than 100 µM and the TGI [7] was greater than 100 µM. For the same compound, the TGI [8] was greater than 100 µM and the TGI [10] was greater than 100 µM.
With `NC(CO)c1ccc(OCc2ccccc2)cc1` (centres undefined) the TGI [1] was greater than 100 µM, the TGI [3] was greater than 100 µM and the TGI [4] was greater than 100 µM. It also gave a TGI [5] greater than 91.4 µM, a TGI [6] greater than 100 µM and a TGI [7] greater than 100 µM. For the same compound, the TGI [8] was greater than 100 µM and the TGI [10] was greater than 100 µM.
With `COC(=O)c1nc(C(=O)OC)c2c([nH]c3ccccc32)c1C(=O)OC` the TGI [3] was greater than 100 µM, the TGI [6] was greater than 100 µM and the TGI [7] was greater than 100 µM. It also gave a TGI [8] greater than 100 µM.
`CC(=O)OCC1OC([Se-])C(OC(C)=O)C(OC(C)=O)C1OC(C)=O.N#CCC[PH+](CCC#N)CCC#N.[Au+]` (centres undefined) gave a GI50 [1] of 3.55 µM, a TGI [1] of 28.3 µM and a GI50 [3] of 4.73 µM. The TGI [3] was 39.7 µM, the GI50 [4] was 5.75 µM and the TGI [4] was 40.8 µM. The GI50 [5] was 16.2 µM, the TGI [5] was 55.6 µM and the GI50 [6] was 3.85 µM. The TGI [6] was greater than 50.2 µM, the GI50 [7] was 14.2 µM and the TGI [7] was 46.9 µM. It also gave a GI50 [8] of 15.3 µM, a TGI [8] of 41.2 µM and a GI50 [10] of 3.12 µM. For the same compound, the TGI [10] was 8.21 µM.
`CCc1cccc(CC)c1NC(=O)CC1SC(N)=NC1=O` (centres undefined) was tested, and the TGI [1] was greater than 100 µM, the TGI [3] was greater than 100 µM and the TGI [4] was greater than 100 µM. The TGI [6] was greater than 100 µM, the TGI [7] was greater than 100 µM and the TGI [8] was greater than 100 µM. It also gave a TGI [10] greater than 100 µM.
With `C=CCC12CCC(=O)[C@@]1(C)CC=C(O)C2=O` (some centres undefined) the TGI [3] was greater than 100 µM, the TGI [4] was greater than 100 µM and the TGI [5] was greater than 100 µM. It also gave a TGI [6] greater than 100 µM, a TGI [7] greater than 100 µM and a TGI [8] greater than 100 µM. The TGI [10] was greater than 100 µM.
For `O=c1c(O)cc2c(O)oc3c(=O)c(O)c(O)c4c(O)oc1c2c43`, the TGI [1] was 57.9 µM, the TGI [3] was greater than 100 µM and the TGI [4] was greater than 100 µM. It also gave a TGI [5] greater than 100 µM, a TGI [6] greater than 100 µM and a TGI [7] greater than 100 µM. It also gave a TGI [8] greater than 100 µM and a TGI [10] greater than 100 µM.
`Cc1ccc(NC(=O)c2nc(S(C)(=O)=O)oc2-c2ccc(F)cc2)cc1Nc1ccc2ncn(C)c(=O)c2c1` gave a GI50 [2] of 2.48 µM, a TGI [2] of 7.28 µM and a GI50 [6] of 1.75 µM. It also gave a TGI [6] of 3.37 µM, a GI50 [7] of 1.83 µM and a TGI [7] of 3.25 µM. For the same compound, the GI50 [8] was 1.65 µM, the TGI [8] was 3.14 µM and the GI50 [9] was 1.9 µM. For the same compound, the TGI [9] was 4.43 µM.
`COc1cc(C2C(C(=O)O)=C(COC(C)=O)Oc3cc4c(cc32)OCO4)cc(OC)c1OC(C)=O` (centres undefined) was tested, and the TGI [1] was greater than 100 µM, the TGI [3] was greater than 100 µM and the TGI [5] was greater than 100 µM. The TGI [6] was greater than 100 µM, the TGI [7] was greater than 100 µM and the TGI [10] was greater than 100 µM.
`FC(F)(F)c1cc(-c2ncn(/C=C\c3nnco3)n2)cc(C(F)(F)F)c1` gave a GI50 [1] of 0.06 µM, a TGI [1] greater than 42.2 µM and a GI50 [2] of 0.0581 µM. For the same compound, the TGI [2] was 1.51 µM, the GI50 [3] was 0.12 µM and the TGI [3] was 48.2 µM. The GI50 [4] was 0.0381 µM, the TGI [4] was 0.445 µM and the GI50 [5] was 0.0497 µM. For the same compound, the TGI [5] was greater than 38.9 µM, the GI50 [6] was 0.0621 µM and the TGI [6] was greater than 41.9 µM. The GI50 [7] was 0.0803 µM, the TGI [7] was 12.5 µM and the GI50 [8] was 0.0197 µM. For the same compound, the TGI [8] was 0.0744 µM, the GI50 [9] was 0.0414 µM and the TGI [9] was 2.94 µM.
Compound `N#Cc1c2ccccc2c2nnc3ccc(C(F)(F)F)cc3n12` has a GI50 [1] of 59.9 µM, a TGI [1] greater than 100 µM and a GI50 [2] of 32.5 µM. It also gave a TGI [2] greater than 100 µM, a GI50 [3] of 61.8 µM and a TGI [3] greater than 100 µM. For the same compound, the GI50 [4] was 17 µM, the TGI [4] was 68.1 µM and the GI50 [5] was 43.7 µM. For the same compound, the TGI [5] was greater than 100 µM, the GI50 [6] was 58.4 µM and the TGI [6] was greater than 100 µM. The GI50 [7] was 23 µM, the TGI [7] was greater than 100 µM and the GI50 [9] was 27.6 µM. For the same compound, the TGI [9] was greater than 100 µM.
Compound `Cc1cc2c(cc1C)[n+](=O)c(C(=O)CC(=O)C(=O)Nc1ccccc1C(C)C)c(C)n2[O-]` has a TGI [1] greater than 100 µM, a TGI [3] greater than 100 µM and a TGI [4] greater than 100 µM. The TGI [5] was greater than 100 µM, the TGI [6] was greater than 100 µM and the TGI [7] was greater than 100 µM. It also gave a TGI [8] greater than 100 µM and a TGI [10] greater than 100 µM.
For `O=C(O)c1cn(C2CC2)c2cc(N3CCN(C(=O)Nc4nc(-c5ccc(Br)cc5)cs4)CC3)c(F)cc2c1=O`, the GI50 [1] was 1.51 µM, the TGI [1] was greater than 100 µM and the GI50 [2] was 1.88 µM. The TGI [2] was greater than 100 µM, the GI50 [3] was 2.6 µM and the TGI [3] was greater than 100 µM. For the same compound, the GI50 [4] was 2.41 µM, the TGI [4] was greater than 100 µM and the GI50 [6] was 1.17 µM. For the same compound, the TGI [6] was greater than 100 µM, the GI50 [8] was 1.56 µM and the TGI [8] was greater than 100 µM. The GI50 [9] was 2.7 µM and the TGI [9] was greater than 100 µM.
`C#CCn1c(=O)c2cccnc2n(CC#C)c1=O` gave a TGI [3] greater than 100 µM, a TGI [4] greater than 100 µM and a TGI [5] greater than 100 µM. For the same compound, the TGI [6] was greater than 100 µM and the TGI [7] was greater than 100 µM.
